Test results taken from patent US9695195B2, “5-HT3 receptor antagonists” (Takeda Pharmaceutical Company Limited, priority 2012, dated 2017).
Counter-ions that a name gives are not always drawn.

What follows are compounds tested against 5HT3a receptor (Homo sapiens (Human), UniProt P46098) (assay: Inhibition of Ca flux activity of 5HT3 in vitro assay). Conditions: 5HT3a expressed in HEK-293T cells; 5HT 216 nM; approximate values.
Chain of 5HT3a receptor (P46098 24-478): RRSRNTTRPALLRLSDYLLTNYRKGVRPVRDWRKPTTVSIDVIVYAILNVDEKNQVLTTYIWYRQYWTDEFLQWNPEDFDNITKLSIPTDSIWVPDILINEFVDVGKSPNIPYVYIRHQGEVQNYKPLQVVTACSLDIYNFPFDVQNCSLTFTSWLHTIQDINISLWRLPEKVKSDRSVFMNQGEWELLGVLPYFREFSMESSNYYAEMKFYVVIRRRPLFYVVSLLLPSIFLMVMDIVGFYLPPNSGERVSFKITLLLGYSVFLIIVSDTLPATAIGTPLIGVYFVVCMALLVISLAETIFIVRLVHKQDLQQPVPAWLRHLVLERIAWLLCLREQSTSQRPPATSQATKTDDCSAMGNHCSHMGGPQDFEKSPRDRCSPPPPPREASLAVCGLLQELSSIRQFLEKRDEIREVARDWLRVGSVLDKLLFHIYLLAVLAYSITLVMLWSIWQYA
Type: cell-based
Experimental: The 5HT3 antagonist activity of the compounds of the invention was determined by measuring the ability of the compounds to inhibit the calcium flux activity of […] receptor expressed in HEK-293T cells. HEK-293T cells were transfected with the 5HT3a expression construct using Xtreme Gene 9 (Roche) in 150 mm tissue culture treated plates and incubated for 24 hours at 37° C. Cells were then split and plated at a density of 60K cells/well in poly-lysine coated, black 96-well plates with clear bottoms (BD BioSciences) and incubated overnight at 37° C. Growth media was removed and cells loaded with 200 uL calcium indicator dye in HBSS containing 20 mM HEPES (Calcium 5 Assay kit, Molecular Devices) and incubated at 37° C. for 1 hour. While cells were incubating, the 10× antagonist and agonist/antagonist addition plates were made. For 10× antagonist plate: half log serial dilutions (final concentrations range from 10^−7 through 10^−10 with the bottom well a negative, no ligand control) were made from test compounds in DMSO at a 1000× concentration and then diluted to 10× in HBSS/20 mM HEPES. For addition plate: 5HT was diluted to 100× in HBSS/20 mM HEPES (final concentration in the assay-216 nM) and 15 uL was added to each well of the addition plate, 15 uL of 10× compound was also added to the addition plate, and finally 120 uL of HBSS/20 mM HEPES (for a total of 150 uL). Cells were then removed from the incubator and equilibrated to room temperature for 10 minutes, then 22.5 uL of 10× test compounds were added in triplicate to the plates and incubated at room temperature for 10 minutes (Tropisetron was used as a positive control in every assay). Test plate and addition plate were loaded into the FlexStation III (Molecular Devices), and using the fluidics, 22.5 uL compound additions were made (at t=˜17 seconds), and fluorescence was measured for 90 seconds, reading every 2.2 seconds. Data sets were analyzed as max minus min using Software Max Pro (Molecular Devices). IC50 curves were generated using non-linear regression in GraphPad Prism.
Compound `CN1[C@@H]2CCC[C@H]1CC(OC(=O)c1nn(CCF)c3ccccc13)C2` (stereo partly drawn) [Compound 16, (1R,3R,5S)-9-methyl-9-aza-bicyclo[3.3.1]nonan-3-yl 1-(2-fluoroethyl)-1H-indazole-3-carboxylate, 2,2,2-trifluoro-acetate; 2,2,2-trifluoroacetate] has an IC50 of 3.25 nM.
With `CN1[C@@H]2CCC[C@H]1CC(OC(=O)c1cn(S(C)(=O)=O)c3ccc(F)cc13)C2` (stereo partly drawn) [Compound 34, (1R,3R,5S)-9-methyl-9-aza-bicyclo[3.3.1]nonan-3-yl 5-fluoro-1-(methylsulfonyl)-1H-indole-3-carboxylate, 2,2,2-trifluoroacetate] the IC50 was 0.74 nM.
Compound `CN1[C@@H]2COC[C@H]1CC(OC(=O)c1cn(-c3ncccn3)c3ccccc13)C2` (stereo partly drawn) [Compound 188, (1R,5S,7S)-9-methyl-3-oxa-9-azabicyclo[3.3.1]nonan-7-yl 1-(pyrimidin-2-yl)-1H-indole-3-carboxylate] has an IC50 of 1.75 nM.
`CN1[C@@H]2COC[C@H]1C[C@@H](OC(=O)c1cn(-c3ccc(F)nn3)c3ccccc13)C2` [Compound 137, (1R,5S,7s)-9-methyl-3-oxa-9-azabicyclo[3.3.1]nonan-7-yl 1-(6-fluoropyridazin-3-yl)-1H-indole-3-carboxylate] showed an IC50 of 0.681 nM.
`CN1[C@@H]2CC[C@H]1CC(OC(=O)c1cn(S(C)(=O)=O)c3ccccc13)C2` (stereo partly drawn) [Compound 26, (1R,3R,5S)-8-methyl-8-aza-bicyclo[3.2.1]octan-3-yl 1-(methylsulfonyl)-1H-indole-3-carboxylate, 2,2,2-trifluoro-acetate] was tested, and the IC50 was 0.54 nM.
For `O=C(OC1CC2COCC(C1)N2)c1cn(-c2ccns2)c2ccccc12` [Compound 155, (1R,5S,7s)-3-oxa-9-aza-bicyclo[3.3.1]nonan-7-yl 1-(iso-thiazol-5-yl)-1H-indole-3-carboxylate, 2,2,2-trifluoroacetic acid salt], the IC50 was 1.26 nM.
`CN1[C@@H]2CC[C@H]1CC(OC(=O)c1cn(CC(F)(F)F)c3ccc(F)cc13)C2` (stereo partly drawn) [Compound 1, (1R,3R,5S)-8-methyl-8-aza-bicyclo[3.2.1]octan-3-yl 5-fluoro-1-(2,2,2-trifluoro-ethyl)-1H-indole-3-carboxylate; 2,2,2-trifluoroacetate] gave an IC50 of 2.13 nM.
`CN1[C@@H]2CCC[C@H]1CC(OC(=O)c1c(Cl)n(CCF)c3ccccc13)C2` (stereo partly drawn) [Compound 30, (1R,3R,5S)-9-methyl-9-aza-bicyclo[3.3.1]nonan-3-yl 2-chloro-1-(2-fluoroethyl)-1H-indole-3-carboxylate, 2,2,2-trifluoroacetate] showed an IC50 of 0.2 nM.
`O=C(NC1CC2COCC(C1)N2)c1cn(CC(F)(F)F)c2ccc(F)cc12` [Compound 6, N-((1R,5S,7S)-3-oxa-9-aza-bicyclo[3.3.1]nonan-7-yl)-5-fluoro-1-(2,2,2-trifluoro-ethyl)-1H-indole-3-carboxamide, 2,2,2-trifluoroacetate] was tested, and the IC50 was 2.33 nM.
With `CN1[C@@H]2COC[C@H]1CC(OC(=O)c1cn(-c3cnccn3)c3ccccc13)C2` (stereo partly drawn) [Compound 181, (1R,5S,7S)-9-methyl-3-oxa-9-azabicyclo[3.3.1]nonan-7-yl 1-(pyrazin-2-yl)-1H-indole-3-carboxylate] the IC50 was 1.1 nM.
`O=C(OC1CC2CCC(C1)N2)c1cn(CC(F)(F)F)c2ccccc12` [Compound 14, (1R,3R,5S)-8-azabicyclo[3.2.1] octan-3-yl 1-(2,2,2-trifluoroethyl)-1H-indole-3-carboxylate, 2,2,2-trifluoroacetate] gave an IC50 of 3.71 nM.
With `O=C(OC1CC2COCC(C1)N2)c1cn(-c2ccsn2)c2ccccc12` [Compound 145, (1R,5S,7s)-3-oxa-9-aza-bicyclo[3.3.1]nonan-7-yl 1-(iso-thiazol-3-yl)-1H-indole-3-carboxylate, 2,2,2-trifluoroacetic acid salt] the IC50 was 2.71 nM.
`N#CCn1cc(C(=O)OC2C[C@H]3COC[C@@H](C2)N3)c2ccccc21` (stereo partly drawn) [Compound 187, (1R,5S,7S)-3-oxa-9-aza-bicyclo[3.3.1]nonan-7-yl 1-(cyanomethyl)-1H-indole-3-carboxylate] gave an IC50 of 1.18 nM.
In the case of `O=C(OC1C[C@H]2COC[C@@H](C1)N2)c1cn(-c2ncccn2)c2ccccc12` (stereo partly drawn) [Compound 25, (1R,5S,7S)-3-oxa-9-aza-bicyclo[3.3.1]nonan-7-yl 1-(pyrimidin-2-yl)-1H-indole-3-carboxylate, 2,2,2-trifluoro-acetate], the IC50 is reported as 3.88 nM.
For `CN1[C@@H]2COC[C@H]1C[C@@H](OC(=O)c1cn(CC(F)(F)F)c3ccc(F)cc13)C2` [Compound 32, (1R,5S,7S)-9-methyl-3-oxa-9-azabicyclo[3.3.1]nonan-7-yl 5-fluoro-1-(2,2,2-trifluoroethyl)-1H-indole-3-carboxylate, 2,2,2-trifluoroacetate], the IC50 was 1.38 nM.
`CS(=O)(=O)n1cc(C(=O)O[C@H]2C[C@H]3COC[C@@H](C2)N3)c2cc(F)ccc21` [Compound 19, (1R,5S,7S)-3-oxa-9-aza-bicyclo[3.3.1]nonan-7-yl 5-fluoro-1-(methylsulfonyl)-1H-indole-3-carboxylate, 2,2,2-trifluoroacetate] gave an IC50 of 7.72 nM.
`CN1[C@@H]2CC[C@H]1CC(NC(=O)c1cn(S(C)(=O)=O)c3ccc(F)cc13)C2` (stereo partly drawn) [Compound 18, 5-fluoro-N-((1R,3R,5S)-8-methyl-8-azabicyclo[3.2.1]octan-3-yl)-1-(methylsulfonyl)-1H-indole-3-carboxamide, 2,2,2-trifluoroacetate] showed an IC50 of 4.06 nM.
For `CN1[C@@H]2CCC[C@H]1CC(OC(=O)c1nn(S(C)(=O)=O)c3ccccc13)C2` (stereo partly drawn) [Compound 4, (1R,3R,5S)-9-methyl-9-aza-bicyclo[3.3.1]nonan-3-yl 1-(methylsulfonyl)-1H-indazole-3-carboxylate, 2,2,2-trifluoroacetate], the IC50 was 1.4 nM.
Compound `CN1[C@@H]2CC[C@H]1C[C@@H](OC(=O)c1c(Cl)n(S(C)(=O)=O)c3ccccc13)C2` [Compound 13, (1R,3R,5S)-8-methyl-8-aza-bicyclo[3.2.1]octan-3-yl 2-chloro-1-(methylsulfonyl)-1H-indole-3-carboxylate, 2,2,2-trifluoroacetate] has an IC50 of 0.93 nM.
In the case of `O=C(OC1C[C@H]2COC[C@@H](C1)N2CCF)c1cn(CC(F)F)c2ccc(F)cc12` (stereo partly drawn) [Compound 33, (1R,5S,7S)-9-(2-fluoroethyl)-3-oxa-9-azabicyclo[3.3.1] nonan-7-yl 1-(2,2-difluoroethyl)-5-fluoro-1H-indole-3-carboxylate, 2,2,2-trifluoroacetate], the IC50 is reported as 14.4 nM.
In the case of `CN1[C@@H]2CC[C@H]1C[C@H](OC(=O)c1c3n(c4ccccc14)CCO3)C2` [Compound 28, (1R,3R,5S)-8-methyl-8-aza-bicyclo[3.2.1]octan-3-yl 2,3-dihydrooxazolo[3.2-a] indole-9-carboxylate, 2,2,2-trifluoroacetate], the IC50 is reported as 1.08 nM.
`CN1[C@@H]2COC[C@H]1CC(OC(=O)c1cn(-c3cncnc3)c3ccccc13)C2` (stereo partly drawn) [Compound 189, (1R,5S,7S)-9-methyl-3-oxa-9-azabicyclo[3.3.1]nonan-7-yl 1-(pyrimidin-5-yl)-1H-indole-3-carboxylate] was tested, and the IC50 was 0.46 nM.
`CN1[C@@H]2COC[C@H]1CC(OC(=O)c1cn(-c3cnc(F)cn3)c3ccccc13)C2` (stereo partly drawn) [Compound 184, (1R,5S,7S)-9-methyl-3-oxa-9-aza-bicyclo[3.3.1]nonan-7-yl 1-(5-fluoropyrazin-2-yl)-1H-indole-3-carboxylate] showed an IC50 of 1.25 nM.
Work on `CN1[C@@H]2CC[C@H]1CC(OC(=O)c1nn(CC(F)(F)F)c3ccccc13)C2` (stereo partly drawn) [Compound 17, (1R,3R,5S)-8-methyl-8-aza-bicyclo[3.2.1]octan-3-yl 1-(2,2,2-trifluoroethyl)-1H-indazole-3-carboxylate, 2,2,2-trifluoroacetate] yielded an IC50 of 4.39 nM.
For `CN1[C@@H]2CC[C@H]1C[C@H](OC(=O)c1cn(CC(F)F)c3ccc(F)cc13)C2` [Compound 27, (1R,3R,5S)-8-methyl-8-aza-bicyclo[3.2.1]octan-3-yl 1-(2,2-difluoroethyl)-5-fluoro-1H-indole-3-carboxylate, 2,2,2-trifluoroacetate], the IC50 was 0.89 nM.
Work on `CN1[C@@H]2COC[C@H]1C[C@@H](OC(=O)c1cn(-c3cncs3)c3ccccc13)C2` [Compound 183, (1R,5S,7S)-9-methyl-3-oxa-9-azabicyclo[3.3.1]nonan-7-yl 1-(thiazol-5-yl)-1H-indole-3-carboxylate] yielded an IC50 of 1.27 nM.
`Cc1c(C(=O)OC2C[C@H]3CC[C@@H](C2)N3C)c2ccccc2n1CCF` (stereo partly drawn) [Compound 15, (1R,3R,5S)-8-methyl-8-aza-bicyclo[3.2.1]octan-3-yl 1-(2-fluoroethyl)-2-methyl-1H-indole-3-carboxylate, 2,2,2-trifluoroacetate] gave an IC50 of 0.53 nM.
`CN1[C@@H]2COC[C@H]1CC(OC(=O)c1cn(-c3ccsn3)c3ccccc13)C2` (stereo partly drawn) [Compound 182, (1R,5S,7S)-9-methyl-3-oxa-9-azabicyclo[3.3.1]nonan-7-yl 1-(isothiazol-3-yl)-1H-indole-3-carboxylate] was tested, and the IC50 was 1.62 nM.
